Activity calls are given as the source filed them. No cut-off for these calls is given here.
Assays:
[1] = system: HT-1080; experiment: Induction of apoptosis in human HT-1080 cells assessed as necrotic cells at 8 uM incubated for 48 hrs by Annexin V-FITC/PI staining based flow cytometric analysis (reference value: 0.45 %); type: functional
[2] = system: HT-1080; experiment: Cell cycle arrest in human HT-1080 cells assessed as S phase cells at 8 uM incubated for 24 hrs by PI staining based flow cytometric analysis (reference value: 18.3 %); type: functional
[3] = Toxicity in Sprague-Dawley rat assessed as observable clinical signs at 5 mg/kg, po measured after 24 hrs; type: organism-based; conditions: in vivo
[4] = system: HT-1080; experiment: Induction of apoptosis in human HT-1080 cells assessed as late apoptotic cells at 2 uM incubated for 48 hrs by Annexin V-FITC/PI staining based flow cytometric analysis (reference value: 1.15 %); type: functional
[5] = Toxicity in female nude mouse xenografted with human HT-1080 cells assessed as body weight loss at 40 mg/kg, ip administered every 2 days for 8 days; type: organism-based; conditions: in vivo, 192 h, time 8 day
[6] = system: HT-1080; experiment: Antiproliferative activity against human HT-1080 cells harboring IDH1 R132C mutant assessed as reduction in cell viability at 10 uM incubated for 72 hrs by MTT assay; type: functional, cell-based
[7] = Toxicity in Sprague-Dawley rat assessed as observable clinical signs at 0.5 mg/kg, iv measured after 24 hrs; type: organism-based; conditions: in vivo
[8] = system: HT-1080; experiment: Induction of apoptosis in human HT-1080 cells assessed as late apoptotic cells at 4 uM incubated for 48 hrs by Annexin V-FITC/PI staining based flow cytometric analysis (reference value: 1.15 %); type: functional
[9] = Tmax in Sprague-Dawley rat at 0.5 mg/kg, iv measured after 24 hrs by LC-MS/MS analysis; type: ADME, organism-based; conditions: in vivo
[10] = system: HT-1080; experiment: Cell cycle arrest in human HT-1080 cells assessed as S phase cells at 10 uM incubated for 24 hrs by PI staining based flow cytometric analysis (reference value: 18.3 %); type: functional
[11] = system: HT-1080; experiment: Induction of apoptosis in human HT-1080 cells assessed as viable cells at 4 uM incubated for 48 hrs by Annexin V-FITC/PI staining based flow cytometric analysis (reference value: 96.07 %); type: functional; conditions: read-out: Activity
[12] = molecular target: Isocitrate dehydrogenase [NADP] cytoplasmic (Homo sapiens, UniProt O75874); experiment: Inhibition of recombinant human wildtype IDH1 extracted from Escherichia coli BL21 (DE3) cells using alpha-ketoglutarate as substrate incubated for 60 mins in presence of NADPH by absorbance based assay
[13] = system: HT-1080; experiment: Cell cycle arrest in human HT-1080 cells assessed as G2 phase cells at 2 uM incubated for 24 hrs by PI staining based flow cytometric analysis (reference value: 23.6 %); type: functional
[14] = system: Isocitrate dehydrogenase [NADP] cytoplasmic (Homo sapiens), O75874 [R132H]; experiment: Inhibition of recombinant human IDH1 R132H mutant extracted from Escherichia coli BL21 (DE3) cells using alpha-ketoglutarate as substrate at 0.2 uM incubated for 60 mins in presence of NADPH by absorbance based assay relative to control
[15] = Half-life in Sprague-Dawley rat at 0.5 mg/kg, iv measured after 24 hrs by LC-MS/MS analysis; type: ADME, organism-based; conditions: in vivo
[16] = system: HT-1080; experiment: Induction of apoptosis in human HT-1080 cells assessed as viable cells at 2 uM incubated for 48 hrs by Annexin V-FITC/PI staining based flow cytometric analysis (reference value: 96.07 %); type: functional; conditions: read-out: Activity
[17] = system: HT-1080; experiment: Induction of apoptosis in human HT-1080 cells assessed as viable cells at 6 uM incubated for 48 hrs by Annexin V-FITC/PI staining based flow cytometric analysis (reference value: 96.65 %); type: functional; conditions: read-out: Activity
[18] = system: HT-1080; experiment: Induction of apoptosis in human HT-1080 cells assessed as necrotic cells at 4 uM incubated for 48 hrs by Annexin V-FITC/PI staining based flow cytometric analysis (reference value: 0.45 %); type: functional
[19] = Clearance in Sprague-Dawley rat at 5 mg/kg, po measured after 24 hrs by LC-MS/MS analysis; type: ADME, organism-based; conditions: in vivo
[20] = system: Isocitrate dehydrogenase [NADP] cytoplasmic (Homo sapiens), O75874 [R132H]; experiment: Inhibition of recombinant human IDH1 R132H mutant extracted from Escherichia coli BL21 (DE3) cells using alpha-ketoglutarate as substrate at 2 uM incubated for 60 mins in presence of NADPH by absorbance based assay relative to control
[21] = system: L02; experiment: Cytotoxicity against human L02 cells assessed as reduction in cell viability at 0.5 to 2 uM; type: toxicity, cell-based; conditions: l02, 2 µM, dose 0.5-2 µM
[22] = system: HT-1080; experiment: Induction of apoptosis in human HT-1080 cells assessed as late apoptotic cells at 6 uM incubated for 24 hrs by Annexin V-FITC/PI staining based flow cytometric analysis (reference value: 0.60 %); type: functional
[23] = system: BEAS-2B; experiment: Cytotoxicity against human BEAS-2B cells assessed as reduction in cell viability at 0.5 to 2 uM; type: toxicity, cell-based; conditions: dose 0.5-2 µM
[24] = Cmax in Sprague-Dawley rat at 0.5 mg/kg, iv measured after 24 hrs by LC-MS/MS analysis; type: ADME, organism-based; conditions: in vivo
[25] = system: HT-1080; experiment: Cell cycle arrest in human HT-1080 cells assessed as G1 phase cells at 8 uM incubated for 24 hrs by PI staining based flow cytometric analysis (reference value: 58.1 %); type: functional
[26] = system: HT-1080; experiment: Induction of apoptosis in human HT-1080 cells assessed as necrotic cells at 6 uM incubated for 12 hrs by Annexin V-FITC/PI staining based flow cytometric analysis (reference value: 0.38 %); type: functional
[27] = system: Isocitrate dehydrogenase [NADP] cytoplasmic (Homo sapiens), O75874 [R132C]; experiment: Inhibition of recombinant human IDH1 R132C mutant extracted from Escherichia coli BL21 (DE3) cells using alpha-ketoglutarate as substrate at 2 uM incubated for 60 mins in presence of NADPH by absorbance based assay relative to control
[28] = system: HT-1080; experiment: Antiproliferative activity against human HT-1080 cells harboring IDH1 R132C mutant assessed as reduction in cell viability incubated for 72 hrs by MTT assay; type: functional
[29] = molecular target: Isocitrate dehydrogenase [NADP] cytoplasmic (Homo sapiens, UniProt O75874, R132H); experiment: Inhibition of recombinant human IDH1 R132H mutant extracted from Escherichia coli BL21 (DE3) cells using alpha-ketoglutarate as substrate incubated for 60 mins in presence of NADPH by absorbance based assay
[30] = system: HT-1080; experiment: Cell cycle arrest in human HT-1080 cells assessed as G1 phase cells at 4 uM incubated for 24 hrs by PI staining based flow cytometric analysis (reference value: 58.1 %); type: functional
[31] = molecular target: Isocitrate dehydrogenase [NADP] cytoplasmic (Homo sapiens, UniProt O75874, R132C); experiment: Inhibition of IDH1 R132C mutant in human HT-1080 cells assessed as reduction in 2-HG level incubated for 48 hrs in presence of NAD+ by resazurin fluorescence dye based Sigma MAK320-1 assay kit analysis; type: cell-based
[32] = system: HT-1080; experiment: Inhibition of cell migration in human HT-1080 cells incubated for 24 hrs by cell scratch assay; type: functional, cell-based; conditions: dose 1-3 µM
[33] = In vivo inhibition of IDH1 mutant in female nude mouse xenografted with human HT-1080 cells assessed as reduction in 2-HG levels in tumor at 20 mg/kg, ip administered twice at 1 hrs interval by resazurin fluorescence dye based Sigma MAK320-1 assay kit analysis relative to control; type: functional

Chain of Isocitrate dehydrogenase [NADP] cytoplasmic (Homo sapiens), O75874 [R132H] (O75874 whole entry R132H): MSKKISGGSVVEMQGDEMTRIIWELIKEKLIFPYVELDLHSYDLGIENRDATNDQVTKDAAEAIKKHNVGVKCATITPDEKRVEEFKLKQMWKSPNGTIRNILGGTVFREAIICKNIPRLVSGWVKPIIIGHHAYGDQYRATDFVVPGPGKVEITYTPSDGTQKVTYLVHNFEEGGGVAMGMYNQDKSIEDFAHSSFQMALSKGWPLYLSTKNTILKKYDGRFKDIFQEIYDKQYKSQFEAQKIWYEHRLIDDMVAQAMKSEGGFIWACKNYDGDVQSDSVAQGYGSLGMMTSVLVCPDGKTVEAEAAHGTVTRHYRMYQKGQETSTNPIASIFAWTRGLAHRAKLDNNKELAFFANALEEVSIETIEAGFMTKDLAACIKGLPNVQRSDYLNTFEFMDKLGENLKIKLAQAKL
Chain of Isocitrate dehydrogenase [NADP] cytoplasmic (Homo sapiens, UniProt O75874, R132H) (O75874 2-414 R132H limits assumed): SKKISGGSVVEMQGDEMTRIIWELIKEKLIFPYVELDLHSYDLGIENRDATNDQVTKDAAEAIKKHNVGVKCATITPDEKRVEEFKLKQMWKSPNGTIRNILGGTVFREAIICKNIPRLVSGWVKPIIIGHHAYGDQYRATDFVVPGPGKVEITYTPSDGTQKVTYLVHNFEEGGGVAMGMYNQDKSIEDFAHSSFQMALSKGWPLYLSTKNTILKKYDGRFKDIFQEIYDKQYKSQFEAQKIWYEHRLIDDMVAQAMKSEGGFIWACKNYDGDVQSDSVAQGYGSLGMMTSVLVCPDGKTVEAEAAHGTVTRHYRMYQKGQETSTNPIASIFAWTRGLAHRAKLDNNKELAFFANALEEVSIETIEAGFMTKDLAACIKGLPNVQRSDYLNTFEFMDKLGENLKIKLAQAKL
Chain of Isocitrate dehydrogenase [NADP] cytoplasmic (Homo sapiens, UniProt O75874, R132C) (O75874 2-414 R132C limits assumed): as the sequence (O75874 2-414 R132H limits assumed) above, with H131C counted along it
Chain of Isocitrate dehydrogenase [NADP] cytoplasmic (Homo sapiens, UniProt O75874) (O75874 whole entry): as the sequence (O75874 whole entry R132H) above, with H132R counted along it
Chain of Isocitrate dehydrogenase [NADP] cytoplasmic (Homo sapiens), O75874 [R132C] (O75874 whole entry R132C): as the sequence (O75874 whole entry R132H) above, with H132C counted along it

Structure (SMILES): COc1cc(O)c(-c2cc(-c3ccc(O)cc3)nc(N3CCNCC3)n2)cc1CC=C(C)C
- Activity [1]: 4.66%
- Activity [2]: 32.3%
- Activity [3]: Non-Toxic
- Activity [4]: 4.96%
- Activity [5]: Non-Toxic
- Activity [6]: Active
- Activity [7]: Non-Toxic
- Activity [8]: 9.67%
- Tmax [9]: 1.8 min
- Activity [10]: 51.6%
- viability at 4 µM [11]: 83.7%
- IC50 [12]: > 20000 nM
- Activity [13]: 21.9%
- inhibition [14]: 75.4%
- half-life [15]: 87.6 min
- viability at 2 µM [16]: 88.8%
- viability at 6 µM [17]: 80.8%
- Activity [18]: 2.13%
- CL/F [19]: 168 mL/min/kg
- inhibition [20]: > 100%
- Activity [21]: Non-Toxic
- Activity [22]: 5.26%
- Activity [23]: Non-Toxic
- Cmax [24]: 766 ng/mL
- Activity [25]: 51.8%
- Activity [26]: 4.99%
- inhibition [27]: > 100%
- GC50 [28]: 1380 nM
- IC50 [29]: 124 nM
- Activity [30]: 56.1%
- EC50 [31]: 84 nM
- inhibition [32]: Dose-Dependent Effect
- inhibition in vivo at 20 mg/kg [33]: 75%

Source: ChEMBL document CHEMBL5608173, “Discovery of novel natural-product-derived mutant isocitrate dehydrogenases 1 inhibitors: Structure-based virtual screening, biological evaluation and structure-activity relationship study” (Eur J Med Chem, 2024)
